According to patent US7718700B2, “Growth factor-binding compounds and methods of use” (Yale University, priority 2004, dated 2010):
Several values for one entry are separate records, joined by “and”; a condition that tells them apart may be missing. Equal values may be shown once.

Experiments:
[1] = system: Human middle cerebral artery endothelial cells; test: VEGF-induced capillary network formation on Matrigel; type: cell-based; conditions: Endothelial cell, VEGF 20 ng/ml
Procedure: FIGS. 4A-4C show the effects of GFB204 on angiogenesis in vitro. GFB204 inhibits capillary network formation in a dose-response manner (FIG. 4C). Human middle cerebral artery endothelial cells (5×10^4) were seeded onto Matrigel and the cells were incubated with VEGF in the presence (FIG. 4B) or absence (FIG. 4A) of GFB204 as described under Materials and Methods.
Capillary network formation. 200 μl of Matrigel was placed into each well of a 24-well culture plate at 4° C. and allowed to polymerize by incubation at 37° C. as described previously (Papadimitriou, E. et al. Biochem Biophys Res Commun, 2001, 282:306-13). Human middle cerebral artery endothelial cells (5×10^4) were seeded on the Matrigel in 1 ml of EBM containing VEGF (20 ng/ml). Each sample was photographed using a 10× objective lens, and quantified the total length of tube structures in each photograph using the Image Pro Plus software (Media Cybernetic, Inc., Md.).

PDGFR [2] = test: 125I-PDGF binding to its receptor on NIH 3T3 cells; set-up: species or system mouse; conditions: 4° C., 0.5 hours, read-out: IC50 inhibition of [I-125]PDGF binding to its receptor
Procedure: Flk-1/NIH 3T3, NIH 3T3 and EGFR/NIH 3T3 cells were incubated with ^125I-VEGF, ^125I-PDGF and ^125I-EGF (50,000 cpm/well) respectively, along with increasing concentrations of GFB204. Cells were incubated at 4° C. for 0.5 hours, then washed three times with PBS and three times with lysis buffer prior to determining ^125I counts as described under Materials and Methods. An excess of cold VEGF, PDGF, and EGF was used to obtain non-specific binding levels. FIGS. 2A-2C show specific binding (% control) for PDGFR, Flk-1, and EGFR, respectively.
Binding of ^125I-growth factors to their receptors. The binding assay of ^125I-VEGF, ^125I-PDGF and ^125I-EGF to their respective receptors was carried out as described previously (Blaskovich, M. A. et al. Nat Biotechnol, 2000, 18:1065-70. Briefly, Flk-1/NIH 3T3 cells, NIH 3T3 cells and EGFR/NIH 3T3 cells were incubated with ^125I-VEGF, ^125I-PDGF and ^125I-EGF (50,000 cpm/well), respectively, and increasing concentrations of GFB204. Cells were incubated at 4° C. for 0.5 hours, then washed three times with PBS and three times with 25 mM Tris, pH 8.0, 1% Triton-X-100, 10% glycerol, and 1% SDS prior to determining ^125I counts on a gamma counter (Beckmann Inc.). An excess of cold growth factors were used to obtain nonspecific binding levels.

PDGFR [3] = test: PDGF-stimulated PDGFR tyrosine phosphorylation in NIH 3T3 cells; type: cell-based, mouse; conditions: NIH 3T3 cells; read-out: IC50 PDGFR tyrosine phosphorylation (PDGF)
Procedure: Inhibition of growth factor-dependent receptor tyrosine phosphorylation by GFBs. Starved Flk-1/KDR-overexpressing NIH 3T3 cells (Flk-1/NIH 3T3) or NIH 3T3 cells were pretreated with GFBs for 5 min before stimulation with VEGF (50 ng/ml) or PDGF-BB (10 ng/ml) for 10 min, respectively. The cells were then harvested and lysed, and proteins from the lysates were separated by SDS-PAGE and transferred to nitrocellulose. Membranes then were either immunoblotted with anti-phospho-VEGFR2 antibody (Cell Signaling Technologies, Beverly, Mass.) for activated Flk-1 or anti-phospho-tyrosine antibody (4G10, Upstate Biotechnology, Lake Placid, N.Y.) for activated PDGFR. Phosphotyrosine Flk-1 and PDGFR were quantified using a Bio-Rad Model GS-700 Imaging Densitometer (Bio-Rad Laboratories, Inc, Hercules, Calif.) (Blaskovich, M. A. et al. Nat Biotechnol, 2000, 18:1065-70).

CCCCOc1c2cc(C(=O)Nc3cc(C(=O)O)cc(C(=O)OCc4ccccc4)c3)cc1Cc1cc(C(=O)Nc3cc(C(=O)O)cc(C(=O)OCc4ccccc4)c3)cc(c1OCCCC)Cc1cc(C(=O)Nc3cc(C(=O)O)cc(C(=O)OCc4ccccc4)c3)cc(c1OCCCC)Cc1cc(C(=O)Nc3cc(C(=O)O)cc(C(=O)OCc4ccccc4)c3)cc(c1OCCCC)C2 [GFB204]
IC50 [1]: 700 nM | IC50 (PDGFR [2]): 154 nM and 200 to 500 nM | IC50 (PDGFR [3]): 190 nM
